{
  "source": "patent US5650154A",
  "about": "(priority 1989, dated 1997)",
  "system": "polyclonal serum raised against the native antigen",
  "experiment": "Reaction of peptide with polyclonal serum raised against the native antigen",
  "format": "binding, rabbits",
  "details": "rabbit serum",
  "data": [
    {"sequence": "ELVALSNSITAQQMAMMAZASPA [Peptide (b), Tryptic peptide of the H. contortus antigen purified by HPLC]", "values": [
      {"measurement": "reaction with polyclonal serum raised against the native antigen", "value": "reacts strongly"}
    ]}
  ]
}
